Measurements: BindingDB's records for patent US10766864 (Nektar Therapeutics, 2020)

Biological target: Mu-type opioid receptor (Homo sapiens, UniProt P35372)
Test: Receptor Binding Assay
Procedure: Affinities of various compounds were measured in vitro using competitive radioligand binding assays. Serial dilutions of test compounds were incubated with membranes prepared from CHO-K1 cells expressing the mu opioid receptor (MOR; for opioid receptor binding) or rat forebrain membranes (for NMDA receptor binding). 2 nM [3H] Naloxone (MOR) or 0.2 nM [3H] MK801 (NMDA) were used as the specific, competitive radioligands. 10 uM Naloxone (MOR), or 10 uM MK801 (NMDA) was used to determine non-specific binding. Bound radioactivity was measured using a scintillation counter & IC50 values for test compounds were determined by non-linear regression analysis using a one-site competition model (Graph Pad Prizm). Due to each test compound being solubilized in a buffered system for the assay, the results presented herein reflect the free base activity.

Sequence of Mu-type opioid receptor (P35372 whole entry): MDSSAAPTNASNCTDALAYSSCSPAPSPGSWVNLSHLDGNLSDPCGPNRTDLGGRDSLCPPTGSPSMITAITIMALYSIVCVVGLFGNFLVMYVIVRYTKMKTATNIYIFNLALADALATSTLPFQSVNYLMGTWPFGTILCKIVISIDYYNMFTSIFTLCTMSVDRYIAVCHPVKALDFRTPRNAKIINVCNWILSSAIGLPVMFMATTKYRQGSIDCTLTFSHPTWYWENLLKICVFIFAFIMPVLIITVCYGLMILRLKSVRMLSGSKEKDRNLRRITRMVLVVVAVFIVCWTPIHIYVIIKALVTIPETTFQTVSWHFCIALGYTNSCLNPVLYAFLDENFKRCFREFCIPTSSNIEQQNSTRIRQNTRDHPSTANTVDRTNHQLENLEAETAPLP

COCCOCCN1CC[C@]23CCCC[C@H]2[C@H]1Cc1cc2sc(N)nc2cc13 [US10766864, Example 97]
IC50: > 1000 nM
